Measured values: PMC8721105, “Novel Trypanocidal Inhibitors that Block Glycosome Biogenesis by Targeting PEX3–PEX19 Interaction” (Frontiers in Cell and Developmental Biology, 2021)
“Also recorded” adds a separate entry of the source. Like-named read-outs stand apart in the source and are kept apart here.

What was measured:
[1] = ref ChemBridge, cited from earlier work; for Hacc (hydrogen bond acceptor) / Hdon (hydrogen bond donor): provided by the compound library supplier; for LogSw: supplier data
[2] = target: TbPEX3–TbPEX19 interaction (Trypanosoma brucei brucei, UniProt Q383Q3); assay: AlphaScreen TbPEX3–TbPEX19 inhibitor screening and dose response; type: binding; settings: for Activity scores (robust z-scores) / Note (activity in the screen): primary AlphaScreen screen, 10 μM compound
Method: The above solutions were prepared in the reaction buffer [0.5% BSA v/v, 0.05% Tween 80 v/v, 0.2 mM DTT, PBS (pH7.4)] on the day of assay, diluting the compounds from 1 mM stocks in DMSO. Compounds were incubated with the proteins for 30 min at room temperature (RT). Five microliters of AlphaScreen Nickel-chelate acceptor beads (cat. no. 6760619C, PerkinElmer®) and AlphaScreen Glutathione donor beads (cat. no. 6765300, PerkinElmer®) were distributed to the mixture consecutively, with a 15-min interval. The complete 25-μl reaction solutions were incubated for 45 min at RT in the dark, and Alpha signals were captured with Cytation 5 plate reader (BioTek®) with the gain value set at 180. Schematic representation of the experiment setup of the high-throughput screening assays was prepared with BioRender.com.
Following initial hit selection, 10 μM of drugs were tested with GST-His (54 nM) and TbPEX19/TbPEX3 (5 nM) in smaller scale, and the level of signal was normalized (in %) and compared.

[3] = test system: GST-TbPEX3d44; assay: NMR saturation transfer difference (STD) with GST-TbPEX3; type: binding, Trypanosoma brucei; settings: 10 μM protein, 300 µM ligand
Method: NMR saturation transfer difference (STD) experiments ([Mayer and Meyer, 1999]) were carried out on a Bruker AVIII 600-MHz spectrometer equipped with a cryoprobe and a SampleJet auto sampler. One-dimensional (1D) and STD spectra were acquired at 298 K. Compounds were dissolved in DMSO-d6 to a final concentration of 50 mM. STD experiments with GST-TbPEX3, TbPEX19-His, and GST-His were performed in PBS (pH 7.4), 10% D2O at a protein concentration of 10 μM, and a ligand concentration of 300 µM. Saturation time and interscan delay within STD experiments were set to 2 and 2.5 s, respectively.

[4] = Cytotoxicity test on HepG2 cells; settings: human
[5] = test system: T. brucei BSF427; assay: T. brucei cell viability, resazurin-based assay; parameters: species or system Trypanosoma brucei; settings: positive control
Method: BSF strain Lister 427 (termed hereafter as BSF427) and cell line 90-13 (stably expressing Tet repressor) were used in this study. BSF cells were grown in HMI-11 medium and maintained in logarithmic phase [below 2 × 10^6 cells/ml as described in [Kalel et al. (2019)]]. Genomically integrated stable transfections were performed with NotI-linearized plasmid constructs (pGN1-TbPEX11), which integrate into the spacer region of the ribosomal RNA repeat locus in the genome of cell line 90-13, and the clones were selected using blasticidin as described previously ([Kalel et al., 2015]). Expression of TbPEX11-GFP was confirmed with fluorescence microscopy following induction tests (data not shown) with a serial dilution of tetracycline, and minimal concentration (5 ng/ml) of tetracycline was used to achieve expression of the protein in more than 80% of the cells.
T. brucei BSF427 and compound dilutions were mixed in 1 : 1 (v/v) ratio to total volume of 200 μl, to reach final concentrations of 2 × 10^3 cells/ml and 0.19–100 μM of inhibitors, in quadruplicates in 96-well plates. Culture medium with no cells was used as negative control and cultures without presence of compounds as positive control representing normal rate of cell growth. Cells were grown at 37°C in an incubator with humidified air containing 5% CO2 for 3 days. Cell viabilities were measured quantitatively using resazurin dye, by adding 25-µl resazurin (0.1 mg/ml in HBSS) to each well, and the mixture incubated for 6 h in the incubator. Fluorescence emission was detected at 570 and 585 nm after excitation at 530 nm, and fluorescence at 570 nm was subtracted from 585 nm. The inhibition curves were fitted with normalized fluorescence signal (in percentage) against concentration of compounds in Log10 scale using GraphPad Prism, and best fit was used for EC50 estimation. Chemical structures were drawn with ChemDraw 20.0.

Chain of TbPEX3–TbPEX19 interaction (Q383Q3 entry or part of it, other chains not shown): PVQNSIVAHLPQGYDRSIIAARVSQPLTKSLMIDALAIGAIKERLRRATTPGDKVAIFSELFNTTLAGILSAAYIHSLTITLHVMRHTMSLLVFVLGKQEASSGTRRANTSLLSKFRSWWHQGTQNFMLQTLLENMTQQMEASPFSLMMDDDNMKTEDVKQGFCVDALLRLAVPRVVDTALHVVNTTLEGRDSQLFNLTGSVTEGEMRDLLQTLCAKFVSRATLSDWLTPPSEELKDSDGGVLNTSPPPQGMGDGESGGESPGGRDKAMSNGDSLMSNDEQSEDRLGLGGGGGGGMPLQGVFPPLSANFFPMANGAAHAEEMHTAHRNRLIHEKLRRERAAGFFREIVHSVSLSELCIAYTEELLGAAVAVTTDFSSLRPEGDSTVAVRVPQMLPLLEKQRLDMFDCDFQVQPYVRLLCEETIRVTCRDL

Row | SMILES | Hacc (hydrogen bond acceptor) [1] | Hdon (hydrogen bond donor) [1] | LogSw [1] | Activity scores (robust z-scores) [2] | Note (activity in the screen) [2] | Inhibition of TbPEX3–PEX19 interaction (in words) [2] | STD NMR effect with GST-TbPEX3 [3] | EC50 [4] | EC50 ([5]; Trypanosoma brucei, 72 h, read-out: T. brucei EC50, BSF427, 3 days of incubation, resazurin) | EC50 ([5]; read-out: T. brucei EC50, BSF427, 3 days of incubation, resazurin)
1 | O=C(Cc1cccs1)N1C[C@H](O)[C@@H](N2CCCCC2)C1 (racemic) [Compound 41601289, rac-(3S,4S)-4-piperidin-1-yl-1-(2-thienylacetyl)pyrrolidin-3-ol] | 3 | 1 | -2.24 | 0.3122 | Not active | – | – | – | – | –
2 | CCNC(=O)c1cc(NC(=O)C2CCOCC2)ccc1Cl [Compound 5, N-{4-chloro-3-[(ethylamino)carbonyl]phenyl}tetrahydro-2H-pyran-4-carboxamide] | 3 | 2 | -2.58 | – | – | did not inhibit | show STD signal; also recorded: consistent STD effects | – | – | –
3 | CC(CCNC(=O)N1CCC(Oc2ncccn2)CC1)n1ccnc1 (stereo not drawn) [Compound 6, N-[3-(1H-imidazol-1-yl)butyl]-4-(pyrimidin-2-yloxy)piperidine-1-carboxamide] | 5 | 1 | -2.34 | – | – | did not inhibit | show STD signal; also recorded: consistent STD effects | – | – | –
4 | COc1cc(CN2CCCN(Cc3ccccn3)CC2)cc2c1OCO2 [Compound 25282511, 1-[(7-methoxy-1,3-benzodioxol-5-yl)methyl]-4-(pyridin-2-ylmethyl)-1,4-diazepane] | 6 | 0 | -0.93 | – | Active, require characterization | – | – | – | – | –
5 | CCN(Cc1nccn1C)Cc1nccn1-c1ccc(OC)cc1 [Compound 26410952, N-{[1-(4-methoxyphenyl)-1H-imidazol-2-yl]methyl}-N-[(1-methyl-1H-imidazol-2-yl)methyl]ethanamine] | 4 | 0 | -3.12 | – | Active, require characterization | – | – | – | – | –
6 | CNC(=O)c1cccc(NC(=O)C2CCOC(C)(C)C2)c1C (stereo not drawn) [Compound 31960442, 2,2-dimethyl-N-{2-methyl-3-[(methylamino)carbonyl]phenyl}tetrahydro-2H-pyran-4-carboxamide] | 3 | 2 | -2.90 | 0.2733 | Not active | – | – | – | – | –
7 | Cc1cc(=O)n(CCN(Cc2ccccn2)CC2CCCO2)c(=O)[nH]1 (stereo not drawn) [Compound 54483906, 6-methyl-3-{2-[(pyridin-2-ylmethyl)(tetrahydrofuran-2-ylmethyl)amino]ethyl}pyrimidine-2,4(1H,3H)-dione] | 5 | 1 | -1.32 | – | Active, require characterization | – | – | – | – | –
8 | CC(C)c1cc(C2CCCN2C(=O)c2ccc(-c3nnn(C)n3)cc2)no1 (stereo not drawn) [Compound 54866350, 5-(4-{[2-(5-isopropylisoxazol-3-yl)pyrrolidin-1-yl]carbonyl}phenyl)-2-methyl-2H-tetrazole] | 6 | 0 | -2.94 | 2.5166 | Not active | – | – | – | – | –
9 | CC(=O)Nc1ccccc1NC(=O)CN(C)Cc1cnn(C)c1 [Compound 67602110, N~1~-[2-(acetylamino)phenyl]-N~2~-methyl-N~2~-[(1-methyl-1H-pyrazol-4-yl)methyl]glycinamide] | 4 | 2 | -2.21 | 0.7988 | Not active | – | – | – | – | –
10 | COCCN(Cc1cn2ccc(C)cc2n1)Cc1nccs1 [Compound 79442734, (2-methoxyethyl)[(7-methylimidazo[1,2-a]pyridin-2-yl)methyl](1,3-thiazol-2-ylmethyl)amine] | 4 | 0 | -2.43 | – | Active, require characterization | – | – | – | – | –
11 | COc1cccc(N2CCN(C(=O)c3cccc(-c4cn[nH]c4)c3)CC2)c1 [Compound 92838291, 1-(3-methoxyphenyl)-4-[3-(1H-pyrazol-4-yl)benzoyl]piperazine] | 3 | 1 | -3.20 | 1.4019 | Not active | – | – | – | – | –
12 | CN[C@@H]1C[C@H](N)[C@@H](O)[C@H](O[C@H]2O[C@H](CO)[C@H](O)[C@@H]3O[C@@]4(O[C@@H]23)O[C@H]([C@H](N)CO)[C@H](O)[C@H](O)[C@H]4O)[C@H]1O [Hygromycin, reference compound] | – | – | – | – | – | – | – | 16200 nM | – | –
13 | Cc1ccc(C(=O)Nc2ccc(S(=O)(=O)O)c3cc(S(=O)(=O)O)cc(S(=O)(=O)O)c23)cc1NC(=O)c1cccc(NC(=O)Nc2cccc(C(=O)Nc3cc(C(=O)Nc4ccc(S(=O)(=O)O)c5cc(S(=O)(=O)O)cc(S(=O)(=O)O)c45)ccc3C)c2)c1 [suramin, reference compound] | – | – | – | – | – | – | – | – | 37 nM | 37.1 nM
